# Assay results published in patent publication EP0294940B1, “Pharmaceutical compositions” (FISONS plc, priority 1987, dated 1988).
# System: adenosine monophosphate induced bronchoconstriction
# Test: Attenuation of adenosine monophosphate (AMP) induced bronchoconstriction (Example E)
# Assay type: in vivo, Atopic healthy volunteers
# Details: AMP dose giving a 40% reduction in pEFR, pretreatment inhaled for five minutes from a Wright Nebuliser
# Method: Effect of active ingredients A and B, separately and in combination in attenuating adenosine monophosphate induced bronchoconstriction
# Atopic healthy volunteers were selected for the study. Prior to the administration of pretreatment, baseline values of forced expiratory volume in one second (FEV₁), partial expiratory flow rate (pEFR) and maximum expiratory flow rate (mEFR) were measured. Measurement was made on at least three occasions or until the readings were stable (less than 5% variation). On each occasion the pretreatment was inhaled for five minutes from a Wright Nebuliser (operating at a flow rate of 7 litres per minute) through the mouth during tidal breathing.
# Prior to the commencement of adenosine monophosphate (AMP) challenge FEV₁, pEFR and mEFR were measured. The AMP challenge was performed on each study day by giving doubling doses of AMP, each inhaled for two minutes, from either a Wright Nebuliser (operating at a flow rate of 6.5 litres per minute) or an Acorn Nebuliser (operating at a flow rate of 5.5 litres per minute) until a reduction in pEFR of greater than 40% occurs. The nebuliser chosen for each subject was the same throughout the study. AMP was given in a 1 mg/ml-256 mg/ml concentration range, the diluent being physiological saline. Successive doses were administered at 5 minute intervals. Partial expiratory flow rates were measured at 0.5 and 2.5 minutes after each AMP dose. The dose giving a 40% (PD₄₀) reduction in pEFR was determined by interpolation from a log dose response curve.
# The results given in Table 1 were obtained using the procedure of Example E in four volunteers. Ingredient A was nedocromil sodium administered as a 0.5% w/v aqueous solution; ingredient B was atropine methonitrate administered as a 0.2% w/v aqueous solution. The combination was an aqueous solution containing 0.5% w/v nedocromil sodium and 0.2% w/v atropine methonitrate.
Compound,PD40 (Volunteer 1) [mg/mL],PD40 (Volunteer 2) [mg/mL],PD40 (Volunteer 3) [mg/mL],PD40 (Volunteer 4) [mg/mL]
"C[N+]1(C)[C@@H]2CC[C@H]1C[C@@H](OC(=O)C(CO)c1ccccc1)C2 (some centres unmarked) [Ingredient B, atropine methonitrate]",42,23,12,3.4
"CCCc1c2oc(C(=O)O)cc(=O)c2cc2c(=O)cc(C(=O)O)n(CC)c12 [Ingredient A, nedocromil sodium]",43,32,17,27
